{"source": "paper PMC4843953", "about": "“Eukaryotic elongation factor 2 kinase regulates the synthesis of microtubule‐related proteins in neurons” (Journal of Neurochemistry, 2015)", "format_in_all_cases": "cell-based, mice", "key": {"newly synthesized PPP1CC": {"system": "newly synthesized PPP1CC", "assay": "Newly synthesized protein, AHA labeling, streptavidin isolation and western blot", "settings": "AHA labeling 1 h; 2 × 2 ANOVA", "description": "(§1) Neurons were starved of Met for 30 min in Met‐free neurobasal medium and then labeled for 1 h in the presence of 2 mM AHA. After labeling, neurons were washed three times in ice cold phosphate‐buffered saline (PBS) and then lysed [50 mM Tris‐HCl, 50 mM β‐glycerophosphate, 1 mM EGTA, 1 mM EDTA, 1% Triton‐X, 2 × protease inhibitors (Roche Molecular Biochemicals, Indianapolis, IN, USA)] on ice. The lysate was centrifuged at 14 000 g for 10 min at 4°C and the supernatant was used for click‐chemistry using a biotin‐alkyne (B10185; Invitrogen, Carlsbad, CA, USA) and the protein reaction kit (C10276; Invitrogen) so that only newly synthesized proteins are tagged with biotin. Un‐reacted biotin was removed via gel‐filtration (GE; PD MiniTrap G‐25) using PBS‐T (0.01% Tween) as flow‐through. […]\n(§2) Immunoblot data were quantified using LICOR software (version 3.0, Lincoln, NE, USA). Data were analyzed using two‐way ANOVAs. […]\n(§3) Figure 3 Confirmation of two eEF2K targets identified via stable isotope labeling of amino acids in cell culture (SILAC)/bio‐orthogonal non‐canonical amino acid tagging (BONCAT). […] (c) Quantification of western blot data. *p < 0.01 via 2 × 2 (bicuculline × eEF2K inhibitor) ANOVA; n = 8–9."}, "newly synthesized NSF": {"system": "newly synthesized NSF", "assay": "Newly synthesized protein, AHA labeling, streptavidin isolation and western blot", "settings": "AHA labeling 1 h; 2 × 2 ANOVA", "description": "as §1, §2, §3"}, "[1]": {"system": "mRNA levels (Calm, Nsf, Ppp1 cc, Kif5a, Map2, Map1b, Arc)", "assay": "qRT-PCR of total mRNA levels in primary cortical neurons", "settings": "bicuculline 50 μM, 60 min; p < 0.001", "description": "Neurons were treated with bicuculline (50 μM) or vehicle dimethylsulfoxide for 60 min prior to lysis. JAN‐452 or JAN‐384 was administered 30 min prior to bicuculline/vehicle. RNA was purified from cultures using the GeneJET RNA purification kit (K0731; Thermo Fisher, Waltham, MA, USA) and QIAshredder spin columns (79656; Qiagen, Valencia, CA, USA). One μg of RNA was reverse transcribed using the ImProm‐II reverse transcription system (Promega, Madison, WI, USA). qPCR was performed with 1 μL of cDNA using the GoTaq qPCR master mix (A6001; Promega) on a StepOne real‐time PCR system (Life Technologies, Grand Island, NY, USA). PCR conditions were as follows: 95°C for 2 min followed by 40 cycles of 95°C for 15 s and 60°C for 45 s. Median Ct values from samples run in triplicate were used for analysis using the ΔΔCt method with Gapdh as the control. Prior to use in experiments, all primer pairs were determined to be efficient (100 ± 10%) and yield only one appropriately sized product based on melt‐curve analysis and agarose gel electrophoresis. Primers were as follows: Calm: 5′‐[…]‐3′ and 5′‐[…]‐3′; Nsf: 5′‐ […]‐3′ and 5′‐[…]‐3′; Ppp1 cc: 5′‐ […]‐3′ and 5′‐[…]‐3′; Kif5a: 5′‐ […]‐3′ and 5′‐[…]‐3′; Map2: 5′‐ […]‐3′ and 5′‐[…]‐3′; Map1b: 5′‐ CGGACAGTGCTTTGAGAAC‐3′ and 5‐GTGAGGCTGGCTTTGTTG‐3′; Gapdh: 5′‐[…]‐3′ and 5′‐[…]‐3′; Arc: 5′‐[…]‐3′ and 5′‐[…]‐3′. […]"}, "eEF2 phosphorylation": {"system": "eEF2 phosphorylation", "assay": "p-eEF2 levels in primary cortical neurons (immunoblot)", "description": "Primary neuronal cortical cultures were isolated from P0 or P1 C57BL/6J mice, or eEF2K‐WT or KO mice of either sex as previously described (Wong et al. 2005; Kenney et al. 2015). eEF2K mice were generated by Taconic Biosciences, Cranbury, NJ, USA; all mice were bred from colonies maintained at the Southampton General Hospital. All procedures involving mice were done in accordance with United Kingdom Animals (Scientific Procedures) Act 1986 and approved by the University of Southampton.\nFigure 1 Combining pharmacological and genetic strategies with stable isotope labeling of amino acids in cell culture (SILAC)/bio‐orthogonal non‐canonical amino acid tagging (BONCAT) labeling to identify proteins whose synthesis is regulated by eEF2K. (a) Top, the effect of bicuculline administration on p‐eEF2 levels. […] Bottom, examination of the effect of bicuculline on p‐eEF2 levels in neurons from eEF2K‐WT or KO mice. Blots are representative of three to four independent experimental replicates. (b) Experimental designs for combined SILAC/BONCAT labeling to identify proteins whose synthesis are affected by eEF2K inhibition. […] Protein localization was determined using DAVID (Huang et al. 2009), or where DAVID lacked annotation, NCBI.\nas §2"}}, "data": [{"smiles": "CN1CCc2cc3c(cc2[C@H]1[C@@H]1OC(=O)c2c1ccc1c2OCO1)OCO3", "note": "[bicuculline]", "values": [{"measurement": "amount of newly synthesized PPP1CC", "setting": "newly synthesized PPP1CC", "result": "no effect"}, {"measurement": "amount of newly synthesized NSF", "setting": "newly synthesized NSF", "result": "no effect"}, {"measurement": "Arc mRNA", "setting": "[1]", "result": "large increase"}, {"measurement": "eEF2 phosphorylation in neurons from eEF2K-KO mice", "setting": "eEF2 phosphorylation; eEF2K-KO neurons, completely devoid of eEF2 phosphorylation", "result": "did not affect"}, {"measurement": "p-eEF2 level after bicuculline administration", "setting": "eEF2 phosphorylation; primary cortical neurons, back to baseline levels after 60 min", "result": "rapid increase"}]}]}
